Measured values from patent US5591758A, “Organic nitrates, processes for their preparation and their use in the treatment of cardiovascular diseases” (Laboratoires Hoechst, SA, priority 1991, dated 1997).
pIC50: −log10 of the molar value. Counter-ions that a name gives are not always drawn.

Columns and labels:
[1] = test system: isolated pulmonary vessel; test: Relaxant activity on blood vessels isolated from guinea pigs (pulmonary artery); settings: Cavia porcellus; guinea pig pulmonary artery, K+ depolarised, Ca2+ contraction; read-out: IC50 (relaxation of 50%)
Protocol: Determination of the relaxant activity of the compounds according to the invention on blood vessels isolated from guinea pigs.
The pulmonary artery of male guinea pigs (350-500 g) is isolated and cut into spiral tracts (1 mm wide, 15 mm long). […] After having removed the calcium from the tissues (Tyrode without calcium and 0.2 mM EDTA), the tracts are depolarised in the presence of a concentrated solution of K^+ ions (40 mM), which is produced by replacing the NaCl by equimolar amounts of KCl, and a contraction of long duration is then induced by Ca^2+ ions (0.5 mM).
The compounds studied are then introduced into the organ cell in increasing concentrations.
Each compound is tested on at least four vessel spiral tracts.

[2] = test system: anesthetised pigs; test: Haemodynamic effects on anesthetised pigs; type: in vivo, pigs ("German land" race)
Protocol: Haemodynamic effects of the compounds according to the invention on anesthetised pigs or dogs
Pigs are of "German land" race (20-26 kg) and are used after fasting overnight.
In the case of pigs, sedation, analgesia and anesthesia are induced by ketamine HCl (20 mg/kg i.m.), methonidate HCl (10 mg/kg i.m.), xylacine HCl (3 mg/kg i.m.) and sodium pentobarbitol (25-30 mg/kg as bolus i.v. or 0.16 mg/kg/min as i.v. perfusion).
The pigs or dogs are placed under artificial respiration in ambient air. Analysis of the blood gases (pO2, pCO2) is carried out at regular intervals and oxygen can be supplied via the respirator, if necessary.
The haemodynamic parameters recorded include the left ventricular pressure (LVP; Millar PC350 Tip catheter inserted via the carotid artery), systemic blood pressure (BPs, BPd; full catheter in a femoral artery), the end pressure of the left ventricular diastole (LVEDP), the ventricular contractility (LVPdp/dtmax) and the heart rate (HR).
The haemodynamic variables are recorded continuously for 1 to 3 hours, as a function of the period of action of the compound.
The effects of the compounds studied are shown as the absolute difference with respect to the base value (bv) measured before administration of the compounds and are shown in Table VII (a,b,c).
An antianginal activity is estimated by a fall in the BPs and the LVEDP (fall in venous return).

Structure (SMILES) | pIC50 [1] | BPs (min), period of action ([2]; pigs, 3,0 mg/kg i.d.) | BPs, difference to base value ([2]; pigs, 3,0 mg/kg i.d.) | LVRDP (min), period of action ([2]; pigs, 3,0 mg/kg i.d.) | LVRDP, difference to base value ([2]; pigs, 3,0 mg/kg i.d.) | BPs, difference to base value ([2]; pigs, 1,0 mg/kg i.d.) | LVRDP, difference to base value ([2]; pigs, 1,0 mg/kg i.d.) | BPs (min), period of action ([2]; pigs, 10,0 mg/kg i.d.) | BPs, difference to base value ([2]; pigs, 10,0 mg/kg i.d.) | LVRDP (min), period of action ([2]; pigs, 10,0 mg/kg i.d.) | LVRDP, difference to base value ([2]; pigs, 10,0 mg/kg i.d.)
O=C(CNC(=O)[C@@H]1CSCN1)N[C@H]1CO[C@H]2[C@@H]1OC[C@@H]2O[N+](=O)[O-] [Compound 46, 5-[[2-[[(4-L-Thiazolidinyl)carbonyl]amino]-1oxoethyl]amino]-5-deoxy-2-O-nitro-1,4:3,6-dianhydro-L-iditol monohydrochloride] | 4.42 | > 120 min | -30 mmHg | > 120 min | -5,0 mmHg | – | – | – | – | – | –
O=[N+]([O-])O[C@@H]1CO[C@H]2[C@@H]1OC[C@@H]2O [IS-5-MN, isosorbide 5-mononitrate, reference compound] | < 4.00 | 60 min | -5 mmHg | 60 min | -3 mmHg | 0 mmHg | 0 mmHg | > 120 min | -26 mmHg | > 120 min | -3,0 mmHg
